# Laboratory results reported in patent US4791215A, “Derivatives of glutamic acid and aspartic acid” (priority 1984, dated 1988).
# Values joined by “and” are separate entries in the source; they are usually repeats but may differ in a detail not shown here. Equal entries are not always repeated.
# What was measured:
# [1] = system: activity of analgesic drugs; assay: Hot-plate test, potentiation of analgesic drugs (Experiment 2); type: in vivo, rats
# How it was run: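 Male rats of about 150 g, not fasted, five per group, were placed on a plate held at 55°±1° C. Licking or jumping latency was recorded before and at 10–90 min after dosing, with a 30 s cut-off. A positive response meant at least a doubling of reaction time, reported as positives/treated.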
# [2] = system: endogenous opiates analgesia; assay: Analgesic activity of endogenous opiates released by transcutaneous shock, Tail Flick Test (Experiment 3); type: in vivo, rats
# How it was run: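 Non-fasted male rats (~200 g) stressed with 60 Hz-2.5 mA front-leg current, 1 s pulses every 5 s for 20 min, to release endogenous opiates. Analgesia measured by tail flick test.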
# [3] = system: CCK-8 induced contraction of guinea pig gall bladder; assay: Anti-CCK-8 activity on gall bladders in situ; type: in vivo; conditions: for percentage inhibition of contracting effect of CCK-8: single experiments
# biliary flow = assay: Biliary flow (choleretic activity); type: in vivo, rat
# How it was run: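 In urethane-anaesthetised rats with bile duct cannulated, bile collected 1 h before and 2 h after intravenous compound dosing. Samples weighed at 30 minute intervals; 0.5 ml physiological solution given every 30 minutes to prevent dehydration.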
compound,measurement,setting,value
CCCN(CCC)C(=O)C(CCC(=O)O)NC(=O)c1ccc(C(C)C)cc1 (stereo not shown) [Compound C-36],TOTAL positives,[1]; ASA 100 + compound 10 mg/kg i.p.,10 X/30
same,positive responses over number treated,"[1]; ASA 100 + compound 10 mg/kg i.p., 10'",1/5
same,positive responses over number treated,"[1]; ASA 100 + compound 10 mg/kg i.p., 20'",2/5
same,positive responses over number treated,"[1]; ASA 100 + compound 10 mg/kg i.p., 30'",3/5
same,positive responses over number treated,"[1]; ASA 100 + compound 10 mg/kg i.p., 45'",2/5
same,positive responses over number treated,"[1]; ASA 100 + compound 10 mg/kg i.p., 60'",1/5
same,positive responses over number treated,"[1]; ASA 100 + compound 10 mg/kg i.p., 90'",1/5
same,TOTAL positives,[1]; ASA 100 + compound 30 mg/kg i.p.,14 X/30
same,positive responses over number treated,"[1]; ASA 100 + compound 30 mg/kg i.p., 10'",1/5
same,positive responses over number treated,"[1]; ASA 100 + compound 30 mg/kg i.p., 20'",2/5
same,positive responses over number treated,"[1]; ASA 100 + compound 30 mg/kg i.p., 30'",2/5
same,positive responses over number treated,"[1]; ASA 100 + compound 30 mg/kg i.p., 45'",3/5
same,positive responses over number treated,"[1]; ASA 100 + compound 30 mg/kg i.p., 60'",3/5
same,positive responses over number treated,"[1]; ASA 100 + compound 30 mg/kg i.p., 90'",3/5
same,TOTAL positives,[1]; ASA 100 + compound 100 mg/kg i.p.,20 X/30
same,positive responses over number treated,"[1]; ASA 100 + compound 100 mg/kg i.p., 10'",3/5
same,positive responses over number treated,"[1]; ASA 100 + compound 100 mg/kg i.p., 20'",3/5
same,positive responses over number treated,"[1]; ASA 100 + compound 100 mg/kg i.p., 30'",4/5
same,positive responses over number treated,"[1]; ASA 100 + compound 100 mg/kg i.p., 45'",4/5
same,positive responses over number treated,"[1]; ASA 100 + compound 100 mg/kg i.p., 60'",4/5
same,positive responses over number treated,"[1]; ASA 100 + compound 100 mg/kg i.p., 90'",2/5
same,TOTAL positives,[1]; methadone 1 + compound 0.3 mg/kg i.p.,2 X/30
same,positive responses over number treated,"[1]; methadone 1 + compound 0.3 mg/kg i.p., 10'",2/5
same,positive responses over number treated,"[1]; methadone 1 + compound 0.3 mg/kg i.p., 20'",2/5
same,positive responses over number treated,"[1]; methadone 1 + compound 0.3 mg/kg i.p., 30'",3/5
same,positive responses over number treated,"[1]; methadone 1 + compound 0.3 mg/kg i.p., 45'",3/5
same,positive responses over number treated,"[1]; methadone 1 + compound 0.3 mg/kg i.p., 60'",1/5
same,positive responses over number treated,"[1]; methadone 1 + compound 0.3 mg/kg i.p., 90'",1/5
same,TOTAL positives,[1]; methadone 1 + compound 1 mg/kg i.p.,19 X/30
same,positive responses over number treated,"[1]; methadone 1 + compound 1 mg/kg i.p., 10'",3/5
same,positive responses over number treated,"[1]; methadone 1 + compound 1 mg/kg i.p., 20'",5/5
same,positive responses over number treated,"[1]; methadone 1 + compound 1 mg/kg i.p., 30'",4/5
same,positive responses over number treated,"[1]; methadone 1 + compound 1 mg/kg i.p., 45'",3/5
same,positive responses over number treated,"[1]; methadone 1 + compound 1 mg/kg i.p., 60'",3/5
same,positive responses over number treated,"[1]; methadone 1 + compound 1 mg/kg i.p., 90'",1/5
same,TOTAL positives,[1]; methadone 1 + compound 3 mg/kg i.p.,24 X/30
same,positive responses over number treated,"[1]; methadone 1 + compound 3 mg/kg i.p., 10'",5/5
same,positive responses over number treated,"[1]; methadone 1 + compound 3 mg/kg i.p., 20'",5/5
same,positive responses over number treated,"[1]; methadone 1 + compound 3 mg/kg i.p., 30'",3/5
same,positive responses over number treated,"[1]; methadone 1 + compound 3 mg/kg i.p., 45'",4/5
same,positive responses over number treated,"[1]; methadone 1 + compound 3 mg/kg i.p., 60'",5/5
same,positive responses over number treated,"[1]; methadone 1 + compound 3 mg/kg i.p., 90'",2/5
same,"average latency, Tail Flick","[2]; compound 1 mg/kg iv + stress, 5'",6.9 ± 0.74 s
same,"average latency, Tail Flick","[2]; compound 1 mg/kg iv + stress, 10'",6.5 ± 0.42 s
same,"average latency, Tail Flick","[2]; compound 1 mg/kg iv + stress, 15'",4.66 ± 0.55 s
same,"average latency, Tail Flick","[2]; compound 3 mg/kg iv + stress, 5'",9.22 ± 0.67 s
same,"average latency, Tail Flick","[2]; compound 3 mg/kg iv + stress, 10'",8.1 ± 0.43 s
same,"average latency, Tail Flick","[2]; compound 3 mg/kg iv + stress, 15'",9.28 ± 0.64 s
same,percentage inhibition of contracting effect of CCK-8,[3]; 10 mg/kg i.v.,64.8% and 71.6% and 63.3% and 78.7%
same,percentage inhibition of contracting effect of CCK-8,[3]; 30 mg/kg i.v.,100%
same,ED50,"[3]; Cavia porcellus, iv, CCK-8 10 ng/kg i.v., read-out: ED50 (inhibition of 50% of contracting effect of CCK-8)",5.1 mg/kg
same,% increase in biliary flow with respect to controls,biliary flow; 12.5 mg/kg i.v.,+15.5%
same,% increase in biliary flow with respect to controls,biliary flow; 25 mg/kg i.v.,+48.5%
same,% increase in biliary flow with respect to controls,biliary flow; 100 mg/kg i.v.,+215.8%
same,ED50,"biliary flow; Rattus norvegicus, iv, average over 2 hours, read-out: ED50 (dose causing 50% increase in biliary flow)",26.8 mg/kg
